The values below come from ChEMBL document CHEMBL2073809, “Interrelationship between substrates and inhibitors of human CYP3A and P-glycoprotein” (Pharm Res, 1999).

Data set [1] deals with T1, ABCB1 (P-glycoprotein) (Homo sapiens, UniProt P08183). Put plainly: TP_TRANSPORTER: inhibition of Digoxin transepithelial transport (basal to apical)(Digoxin: 5 uM, 6beta-hydroxycortisol: 100 uM) in Caco-2 cells. It counts as functional, cell-based. Conditions: Caco-2, probe digoxin. For orientation: Passage across Caco-2 layers is used to estimate intestinal permeability.

Data set [2] addresses T1, ABCB1 (P-glycoprotein). Put plainly: TP_TRANSPORTER: inhibition of Digoxin transepithelial transport (basal to apical) (Digoxin: 5 uM, S-mephenytoin: 100 uM) in Caco-2 cells. In kind it is functional, cell-based. Conditions: Caco-2, probe digoxin.
For data set [3], the target named is T2, ATP-dependent translocase ABCB1 (Homo sapiens, UniProt P08183). Put plainly: TP_TRANSPORTER: inhibition of Digoxin transepithelial transport (basal to apical)(Digoxin: 5 uM, 1-hydroxymidazolam: 100 uM) in Caco-2 cells. Conditions: caco-2, 100 µM. It counts as functional, cell-based.
The target in data set [4] is T2, ATP-dependent translocase ABCB1. Put plainly: TP_TRANSPORTER: transepithelial transport (basal to apical) in MDR1-expressing LLC-PK1 cells. In kind it is functional, cell-based. The following applies: pig.
In data set [5] the target is T1, ABCB1 (P-glycoprotein). The experiment in a line: TP_TRANSPORTER: inhibition of Digoxin transepithelial transport (basal to apical) (Digoxin: 5 uM, Erythromycin: 100 uM) in Caco-2 cells. The following applies: Caco-2, probe digoxin. In kind it is functional, cell-based.
Data set [6] has as its target T1, ABCB1 (P-glycoprotein). Put plainly: TP_TRANSPORTER: inhibition of Digoxin transepithelial transport (basal to apical) (Digoxin: 5 uM, Lovastatin: 100 uM) in Caco-2 cells. In kind it is functional, cell-based. The following applies: Caco-2, probe digoxin.
In data set [7] the target is T1, ABCB1 (P-glycoprotein). Put plainly: TP_TRANSPORTER: inhibition of Digoxin transepithelial transport (basal to apical)(Digoxin: 5 uM, Midazolam: 100 uM) in Caco-2 cells. It counts as functional, cell-based. The following applies: Caco-2, probe digoxin.
Data set [8] concerns the target T1, ABCB1 (P-glycoprotein). Put plainly: TP_TRANSPORTER: inhibition of Digoxin transepithelial transport (basal to apical)(Digoxin: 5 uM, Tamoxifen: 100 uM) in Caco-2 cells. Conditions: Caco-2, probe digoxin. It counts as functional, cell-based.
Data set [9] addresses T1, ABCB1 (P-glycoprotein). The experiment in a line: TP_TRANSPORTER: inhibition of Digoxin transepithelial transport (basal to apical)(Digoxin: 5 uM, Terfenadine: 10 uM) in Caco-2 cells. The following applies: Caco-2, probe digoxin. It counts as functional, cell-based.
Data set [10] addresses T3, ATP-dependent translocase ABCB1 (Mus musculus, UniProt P21447). The experiment in a line: TP_TRANSPORTER: no change in plasma concentration in mdr1a(-/-) mouse. In kind it is functional, organism-based. The following applies: in vivo.
Data set [11] deals with T3, ATP-dependent translocase ABCB1. Put plainly: TP_TRANSPORTER: no change in liver concentration in mdr1a(-/-) mouse. It counts as functional, organism-based. The following applies: in vivo.
The target is the same in data set [12]. Put plainly: TP_TRANSPORTER: no change in kidney concentration in mdr1a(-/-) mouse. In kind it is functional, organism-based. Conditions: in vivo.

The term inhibition denotes the drop in the measured response relative to a control, in per cent.

T1 sequence (P08183 whole entry): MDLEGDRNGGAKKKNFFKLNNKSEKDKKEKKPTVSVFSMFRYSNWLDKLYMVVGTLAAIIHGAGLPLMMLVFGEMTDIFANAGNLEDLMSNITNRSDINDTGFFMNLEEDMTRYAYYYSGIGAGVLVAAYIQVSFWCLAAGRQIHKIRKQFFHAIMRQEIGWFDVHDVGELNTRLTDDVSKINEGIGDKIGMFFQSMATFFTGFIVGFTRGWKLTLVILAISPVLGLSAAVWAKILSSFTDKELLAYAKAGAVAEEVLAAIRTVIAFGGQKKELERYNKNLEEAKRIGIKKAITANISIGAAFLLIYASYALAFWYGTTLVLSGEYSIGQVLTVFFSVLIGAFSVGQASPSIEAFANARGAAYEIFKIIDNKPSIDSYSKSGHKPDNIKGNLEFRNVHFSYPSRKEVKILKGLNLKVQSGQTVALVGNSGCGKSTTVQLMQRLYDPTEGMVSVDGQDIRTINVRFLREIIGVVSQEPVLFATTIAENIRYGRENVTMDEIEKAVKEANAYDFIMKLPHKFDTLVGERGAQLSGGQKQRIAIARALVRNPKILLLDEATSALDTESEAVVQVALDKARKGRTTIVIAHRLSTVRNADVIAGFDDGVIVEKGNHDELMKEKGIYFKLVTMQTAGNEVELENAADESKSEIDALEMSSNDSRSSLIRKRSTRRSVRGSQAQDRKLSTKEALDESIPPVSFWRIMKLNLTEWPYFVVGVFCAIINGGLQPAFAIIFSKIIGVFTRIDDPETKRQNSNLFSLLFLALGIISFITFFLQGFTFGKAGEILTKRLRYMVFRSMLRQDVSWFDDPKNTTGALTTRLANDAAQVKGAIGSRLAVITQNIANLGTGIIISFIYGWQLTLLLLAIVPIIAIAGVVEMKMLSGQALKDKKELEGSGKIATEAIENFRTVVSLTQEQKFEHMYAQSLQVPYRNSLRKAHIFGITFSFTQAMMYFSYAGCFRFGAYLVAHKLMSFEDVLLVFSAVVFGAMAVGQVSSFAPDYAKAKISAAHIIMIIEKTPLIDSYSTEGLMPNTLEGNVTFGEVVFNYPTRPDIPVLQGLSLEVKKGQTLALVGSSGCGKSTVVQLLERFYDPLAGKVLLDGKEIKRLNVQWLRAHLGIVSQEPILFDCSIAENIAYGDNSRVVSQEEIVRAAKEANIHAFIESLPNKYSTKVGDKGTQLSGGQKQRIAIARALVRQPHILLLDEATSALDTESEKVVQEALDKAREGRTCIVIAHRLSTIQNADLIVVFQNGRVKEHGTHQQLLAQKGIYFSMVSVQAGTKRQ
T2 sequence (P08183 whole entry): as above
T3 sequence (P21447 whole entry): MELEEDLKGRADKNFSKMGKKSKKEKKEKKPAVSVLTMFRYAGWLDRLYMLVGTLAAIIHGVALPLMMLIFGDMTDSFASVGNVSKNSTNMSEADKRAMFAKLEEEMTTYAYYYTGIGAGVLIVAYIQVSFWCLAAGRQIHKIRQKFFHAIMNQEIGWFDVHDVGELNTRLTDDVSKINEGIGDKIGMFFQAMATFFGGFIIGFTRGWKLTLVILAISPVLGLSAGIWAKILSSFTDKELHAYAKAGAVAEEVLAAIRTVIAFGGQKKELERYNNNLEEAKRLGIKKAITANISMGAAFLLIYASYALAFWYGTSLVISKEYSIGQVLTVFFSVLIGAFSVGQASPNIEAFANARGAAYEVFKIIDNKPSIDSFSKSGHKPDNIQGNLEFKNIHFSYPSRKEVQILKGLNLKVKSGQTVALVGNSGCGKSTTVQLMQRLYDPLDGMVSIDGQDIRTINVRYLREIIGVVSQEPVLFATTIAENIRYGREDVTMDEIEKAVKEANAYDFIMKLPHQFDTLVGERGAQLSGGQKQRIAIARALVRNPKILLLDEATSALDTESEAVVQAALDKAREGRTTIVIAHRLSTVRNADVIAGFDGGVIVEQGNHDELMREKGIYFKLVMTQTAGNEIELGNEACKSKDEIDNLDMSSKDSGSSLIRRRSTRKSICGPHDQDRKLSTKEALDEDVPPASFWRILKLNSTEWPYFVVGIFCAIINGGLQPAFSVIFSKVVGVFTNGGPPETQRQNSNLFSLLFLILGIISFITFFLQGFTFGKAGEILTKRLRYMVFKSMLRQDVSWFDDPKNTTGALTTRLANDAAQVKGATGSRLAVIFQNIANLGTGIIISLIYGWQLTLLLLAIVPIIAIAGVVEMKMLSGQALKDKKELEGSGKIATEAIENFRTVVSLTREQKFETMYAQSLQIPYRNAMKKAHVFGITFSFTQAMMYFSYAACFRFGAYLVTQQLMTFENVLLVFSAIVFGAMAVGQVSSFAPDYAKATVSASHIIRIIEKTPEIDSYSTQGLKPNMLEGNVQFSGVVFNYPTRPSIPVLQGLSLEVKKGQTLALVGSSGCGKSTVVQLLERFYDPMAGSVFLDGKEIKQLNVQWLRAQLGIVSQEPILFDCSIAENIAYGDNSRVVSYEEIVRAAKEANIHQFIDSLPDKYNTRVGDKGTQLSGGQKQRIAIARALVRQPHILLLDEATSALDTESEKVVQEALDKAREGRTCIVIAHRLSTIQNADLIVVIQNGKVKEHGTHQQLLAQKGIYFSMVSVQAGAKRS

As for `C[C@]12CCC(=O)C=C1[C@H](O)C[C@@H]1[C@@H]2[C@@H](O)C[C@@]2(C)[C@H]1CC[C@]2(O)C(=O)CO`, the inhibition at 100 µM at ABCB1 (P-glycoprotein) [1] is 57%.

In the case of `CC[C@@]1(c2ccccc2)NC(=O)N(C)C1=O`, on ABCB1 (P-glycoprotein) [2], the inhibition at 100 µM was determined as 42%.

In turn, `OCc1ncc2n1-c1ccc(Cl)cc1C(c1ccccc1F)=NC2` [ALPHA-HYDROXY-MIDAZOLAM] returned an Activity in data set [3] of 63.

On to `N=C(N)N1CCc2ccccc2C1` [DEBRISOQUIN], for which, in data set [4], the Activity entry was “substrate [+]”.

Take `CC[C@H]1OC(=O)[C@H](C)[C@@H](O[C@H]2C[C@@](C)(OC)[C@@H](O)[C@H](C)O2)[C@H](C)[C@@H](O[C@@H]2O[C@H](C)C[C@H](N(C)C)[C@H]2O)[C@](C)(O)C[C@@H](C)C(=O)[C@H](C)[C@@H](O)[C@]1(C)O` [ERYTHROMYCIN]: the inhibition at 100 µM against ABCB1 (P-glycoprotein) [5] is 101%.

For `CC[C@H](C)C(=O)O[C@H]1C[C@@H](C)C=C2C=C[C@H](C)[C@H](CC[C@@H]3C[C@@H](O)CC(=O)O3)[C@H]21` [LOVASTATIN], the inhibition at 100 µM against ABCB1 (P-glycoprotein) [6] is 65%.

Turning to `Cc1ncc2n1-c1ccc(Cl)cc1C(c1ccccc1F)=NC2` [MIDAZOLAM], the inhibition at 100 µM against ABCB1 (P-glycoprotein) [7] was determined as 74%. Besides, the Activity result in [4] was “is not a substrate [-]”.

In the case of `COC(=O)C1=C(C)NC(C)=C(C(=O)OC)C1c1ccccc1[N+](=O)[O-]` [NIFEDIPINE], the Activity result in data set [4] is “is not a substrate [-]”.

In the case of `CC/C(=C(\c1ccccc1)c1ccc(OCCN(C)C)cc1)c1ccccc1` [TAMOXIFEN], the inhibition at 100 µM at ABCB1 (P-glycoprotein) [8] is 86%.

On to `CC(C)(C)c1ccc(C(O)CCCN2CCC(C(O)(c3ccccc3)c3ccccc3)CC2)cc1` (centres undefined) [TERFENADINE], for which the inhibition at 10 µM against ABCB1 (P-glycoprotein) [9] was found to be 112%.

Take IVERMECTIN: the Activity result in [10], in data set [11] and in [12] was “is not a substrate [-]” in each case.
